Measurements reported in EP1131089B1, “STABLE AQUEOUS INSULIN PREPARATIONS WITHOUT PHENOL AND CRESOL” (Novo Nordisk A/S, priority 1998, dated 2000).

What was measured:
human insulin [1] = assay: Chemical stability at 37 °C, covalent insulin polymer determined by size exclusion chromatography; type: physicochemical; conditions: stabiliser equimolar to insulin, 0.5 Zn2+/insulin, NaCl 15 mM, glycylglycine 7 mM, tween 20 0.01 %, pH 7.5
Description: (§1) 27.5 ml of a 21 mM insulin stock solution was made by dissolving 3.707 g zinc free human insulin in 14 ml water and adding 2888 µl of 0.1 M ZnCl2 and 7 ml water before adjusting pH to 7.5 by 0.2 M NaOH and finally adding water to 27.5 ml, calculating the specific volume of insulin as 0.7 µl/mg. The stock solution was filtrated. A preparation of 3.5 ml 15 mM insulin was then made by adding 23 µl 2.3 M stabiliser in ethanol, 49 µl 0.5 M glycylglycine and 35 µl 1 % Tween 20 and water to 3.5 ml. The solution was thereafter diluted with medium containing sodium chloride 15 mM, glycylglycine 7 mM, Tween 20 0.01 %, pH 7.5 to 12, 9, 6, 3 and 0.6 mM insulin and stored at 5 °C for visual inspection. The reference solution was made by the same way but without adding a stabiliser. The chemical stability of the insulin solutions were followed at 37 °C for two concentrations, 3 and 15 mM, by determination of covalent insulin polymer by size exclusion chromatography. The analysis of insulin polymer was performed on Waters PROTEIN PAK 125 (250 x 8 mm) with an eluent containing 2.5 M acetic acid, 4 mM L-arginine and 20 %(V/V) acetonitrile at a flow rate of 1 ml/min. and ambient temperature. Detection was performed with a tunable absorbance detector (Waters 486) at 276 nm. Injection volume were […] for 3 and 15 mM insulin solutions, respectively.
(§2) 3.26 g human insulin (0.4 equivalent Zn^2+ per insulin) was dispersed in water in 18 ml water on icebath and added 490 µl 0.5 M glycylglycine and 1628 µl sodium hydroxide (3.1 equivalent) and stirred slowly overnight at 5 °C. 613 µl 0.1 M zinc chloride (0.1 equivalent of zinc) was then added the solution, pH adjusted to 7.5 by 410 µl 1 M hydrochloric acid (0.8 equivalent of chloride) and the volume adjusted to 25 ml by water. Finally the stock solution of 21 mM insulin was filtrated. 3.57 ml of the stock solution was added 50 µl 1 % tween 20, 750 µl 0.1 M stabiliser and 630 µl water to obtain 5 ml 15 mM insulin formulation. Finally the preparation was diluted with medium containing sodium chloride, glycylglycine and detergent to obtain 12, 9, 6, and 3 mM of human insulin and stored at 5 °C for visual inspection. The chemical stability of 3 and 15 mM insulin solutions were followed at 37 °C by determination of covalent insulin polymer by size exclusion chromatography.

human insulin [2] = assay: Physical stability of insulin solution with stabiliser, visual inspection for precipitation on storage at 5 °C; type: physicochemical; conditions: 0.5 Zn2+/insulin, NaCl 15 mM, glycylglycine 7 mM, tween 20 0.01 %, pH 7.5
Description: as §1, §2

[3] = example 1, stabiliser equimolar to insulin
[4] = example 2, stabiliser equimolar to insulin

| Chemical stability at 37°C (% polymer / week) Insulin solution of 3 mM (human insulin [1]; example 1, 3 mM insulin) [% polymer / week] | Chemical stability at 37°C (% polymer / week) Insulin solution of 15 mM (human insulin [1]; example 1, 15 mM insulin) [% polymer / week] | Physical stability of solution at 4 weeks and 5°C Maximal insulin concentration at which the solution was without precipitation up to 15 mM (3, 6, 9, 12, 15mM) (human insulin [2]; [3]) [mM] | Chemical stability at 37°C (% polymer / week) Insulin solution of 3 mM (human insulin [1]; example 2, 3 mM insulin) [% polymer / week] | Chemical stability at 37°C (% polymer / week) Insulin solution of 15 mM (human insulin [1]; example 2, 15 mM insulin) [% polymer / week] | Physical stability of solution at 4 weeks and 5°C Maximal insulin concentration at which the solution was without precipitation up to 15 mM (3, 6, 9, 12, 15mM) (human insulin [2]; [4]) [mM] | Structure (SMILES) |
| --- | --- | --- | --- | --- | --- | --- |
| 0.64 | 0.95 | 15 |  |  |  | CC1(C)[C@H]2CC[C@H](CO)[C@@H]1C2 [(-)-trans-myrtanol] |
| 0.50 | 0.97 | 15 |  |  |  | CC1(C)[C@H]2CC[C@](C)(C2)[C@H]1O [(+)-fenchol] |
| 0.47 | 0.61 | 9 |  |  |  | CC1(C)C2CCC1(C)C(O)C2 (single isomer, unassigned; (+)) [(+)-borneol] |
| 0.43 | 0.47 | 9 |  |  |  | CC1(C)C2CCC1(C)C(O)C2 (single isomer, unassigned; (-)) [(-)-borneol] |
| 0.49 | 0.61 | 12 |  |  |  | CC1C(O)CC2CC1C2(C)C (single isomer, unassigned; (+)) [(+)-isopinocampheol] |
|  |  |  | 0.58 | 0.71 | 15 | c1ncc2[nH]cnc2n1 [purine] |
|  |  |  | 0.59 | 0.77 | 9 | Nc1ncnc2nc[nH]c12 [adenine] |
| 0.53 | 0.56 | 15 |  |  |  | CC1C(O)CC2CC1C2(C)C (single isomer, unassigned; (-)) [(-)-isopinocampheol] |

| Structure (SMILES) | Chemical stability at 37°C (% polymer / week) Insulin solution of 3 mM (human insulin [1]; example 1, 3 mM insulin) [% polymer / week] | Chemical stability at 37°C (% polymer / week) Insulin solution of 15 mM (human insulin [1]; example 1, 15 mM insulin) [% polymer / week] | Physical stability of solution at 4 weeks and 5°C Maximal insulin concentration at which the solution was without precipitation up to 15 mM (3, 6, 9, 12, 15mM) (human insulin [2]; [3]) [mM] | Chemical stability at 37°C (% polymer / week) Insulin solution of 3 mM (human insulin [1]; example 2, 3 mM insulin) [% polymer / week] | Chemical stability at 37°C (% polymer / week) Insulin solution of 15 mM (human insulin [1]; example 2, 15 mM insulin) [% polymer / week] | Physical stability of solution at 4 weeks and 5°C Maximal insulin concentration at which the solution was without precipitation up to 15 mM (3, 6, 9, 12, 15mM) (human insulin [2]; [4]) [mM] |
| --- | --- | --- | --- | --- | --- | --- |
| Oc1ccccc1 [phenol] | 0.37 | 0.39 | 15 | 0.32 | 0.29 | 15 |
